Test results as given in US8557737B2, “Methods of altering poppy characteristics” (priority 2005, dated 2013).
Where two headings read alike, the source gives them in different places.

Legend:
poppy crops [1] = assay: Example 1: field trial, metsulfuron-methyl 36 or 120 mg/ha at 12-14 leaf and ground cover, morphine crop; assay type: in vivo, Papaver somniferum
Procedure: (§1) All trials were conducted on poppy crops. Seed was treated with Thiram (5.6 g of Thiram 800/kg seed) and Apron (4 g/kg) and sown at a rate of approximately 750 g/ha. Fertilisers were applied at sowing. Most commonly, either 50:50 lime:superphosphate/triple superphosphate at 125 kg/ha, or lime:superphosphate at 250 kg/ha, were mixed with seed and drilled at a depth of 15 mm. In the same operation, NPK (nitrogen:phosphorus:potassium), at various rates, was banded 75 mm below the seed, unless otherwise stated. All crops were subjected to herbicide sprays for weed control, fungicide sprays for disease control, insecticide sprays if appropriate and were irrigated as required.
(§2) All spray applications were made with a precision sprayer, using Silvan Lurmark flat-fan, low-drift nozzles (LD110-0015). Spray equipment was calibrated to deliver 153 L water/ha.
(§3) At harvest, a 2 m×4 m quadrat was placed in each plot (3 m×6 m, unless otherwise stated) and capsules hand-picked from this area. Capsules were broken up, seed and capsule material separated and weighed. Capsule moisture readings were taken with a moisture meter. Alkaloid yield data were calculated on Pesticide Research Manager (version 5 for Windows) using the formulae below. Briefly, capsule weight was adjusted for moisture to a dry weight, 5% of seed weight was added to this (this amount of capsule material regularly occurs in seed samples after processing) to give a capsule weight per plot. Seed weight was adjusted to 95% of crude weight. Straw weights were determined by multiplying dry capsule weight by 1.3 (estimated amount of stem material in a commercial harvest) and adjusted to 11% moisture. When Lontrel was applied to crops exact capsule and seed weight data were entered. Analyses of variance and a Multiple Range Test were performed on data using Pesticide Research Manager. Significant differences (P=0.05) between treatments are denoted by different lower case letters adjacent to treatment means in the tables of results.
Metsulfuron-methyl (Compound 1) was applied at a rate of 36 or 120 mg/ha at 12-14 leaf and ground cover growth stages, in a morphine crop.

poppy crops [2] = tested on: poppy crops; parameters: species or system Papaver somniferum; settings: in vivo
poppy crops [3] = assay: Example 6: field trial, one or two applications of metsulfuron-methyl after Sunny versus metsulfuron-methyl alone; assay type: in vivo, Papaver somniferum; settings: COMPOUND 1 120 MG/HA + PULSE .2 % V/V at ERU and at BE (two applications, alone)
Procedure: as §1, §2, §3
Trial to evaluate one or two applications of 120 mg/ha metsulfuron-methyl (Compound 1) after 1 L/ha Sunny, and compare with two applications of metsulfuron-methyl alone. Sunny was applied with crop at 12-14 leaf, metsulfuron-methyl to crop at 12-14 leaf, early run-up and bud-emergence stages. Plant heights were measured at early-full flower and percent lodging was measured on the day of capsule harvest.

poppy crops [4] = assay: Example 12: field trial, metsulfuron-methyl, Sunny and metsulfuron-methyl+Sunny at row cover, early run-up, late run-up, morphine crop; assay type: in vivo, Papaver somniferum; settings: Trt 3: COMPOUND 1 120 MG/HA + PULSE .2% V/V at RC, ERU and LRU
Procedure: as §1, §2, §3
Trial to evaluate applications of metsulfuron-methyl (Compound 1), Sunny and metsulfuron-methyl+Sunny, in a morphine crop. Treatment sprays were applied to crop at row cover, early run-up and late run-up. Plant heights were measured at end of flowering.

poppy crops [5] = assay: Example 18: field trial, triasulfuron, mesosulfuron-methyl and metsulfuron-methyl at row cover, mid run-up and early hook, morphine crop; assay type: in vivo, Papaver somniferum; settings: Trt 2: COMPOUND 1 120 MG/HA + PULSE .2% V/V at RC, MRU and LRU
Procedure: as §1, §2
as §3, with “Manager.” for “Manager. Significant differences (P=0.05) between treatments are denoted by different lower case letters adjacent to treatment means in the tables of results.”
Trial to evaluate applications of triasulfuron, mesosulfuron-methyl and metsulfuron-methyl, in a morphine crop. […] Plant heights were measured 5 weeks after last application and lodging at capsule harvest.

poppy crops [6] = assay: Example 19: field trial, sulfosulfuron, thifensulfuron-methyl and metsulfuron-methyl, morphine crop; assay type: in vivo, Papaver somniferum; settings: 120 MG/HA + PULSE .2 % V/V, applied at M-LRU and LRU-BE
Procedure: as §1, §2
as §3, with “Manager.” for “Manager. Significant differences (P=0.05) between treatments are denoted by different lower case letters adjacent to treatment means in the tables of results.”
Trial to evaluate applications of sulfosulfuron, thifensulfuron-methyl and metsulfuron-methyl, in a morphine crop. Treatment sprays were applied to crop at mid-late run-up and late-run-up/bud-emergence, respectively. Plant heights were measured some 10 weeks after the last application. Lodging was assessed at capsule harvest.

COC(=O)c1ccccc1S(=O)(=O)NC(=O)Nc1nc(C)nc(OC)n1 [Compound 1, metsulfuron-methyl]
CAPSULE/SEED RATIO (poppy crops [1]; 36 MG/HA at 12-14LF): 0.603 | CROP WEIGHT (poppy crops [1]; 36 MG/HA at 12-14LF): 3.78 t/ha | MORPHINE (poppy crops [1]; 36 MG/HA at 12-14LF): 24.25 kg/ha | SEED (poppy crops [1]; 36 MG/HA at 12-14LF): 2020 kg/ha | STRAW (poppy crops [1]; 36 MG/HA at 12-14LF): 1757 kg/ha | STRAW MORPHINE (poppy crops [1]; 36 MG/HA at 12-14LF): 1.38% | CAPSULE/SEED RATIO (poppy crops [1]; 120 MG/HA at 12-14LF): 0.673 | CROP WEIGHT (poppy crops [1]; 120 MG/HA at 12-14LF): 3.37 t/ha | MORPHINE (poppy crops [1]; 120 MG/HA at 12-14LF): 24.40 kg/ha | SEED (poppy crops [1]; 120 MG/HA at 12-14LF): 1710 kg/ha | STRAW (poppy crops [1]; 120 MG/HA at 12-14LF): 1660 kg/ha | STRAW MORPHINE (poppy crops [1]; 120 MG/HA at 12-14LF): 1.47% | CAPSULE/SEED RATIO (poppy crops [1]; 120 MG/HA at GC (ground cover)): 1.253 | CROP WEIGHT (poppy crops [1]; 120 MG/HA at GC (ground cover)): 3.10 t/ha | MORPHINE (poppy crops [1]; 120 MG/HA at GC (ground cover)): 26.19 kg/ha | SEED (poppy crops [1]; 120 MG/HA at GC (ground cover)): 1105 kg/ha | STRAW (poppy crops [1]; 120 MG/HA at GC (ground cover)): 1999 kg/ha | STRAW MORPHINE (poppy crops [1]; 120 MG/HA at GC (ground cover)): 1.31% | CAPSULE/SEED RATIO (poppy crops [2]): 0.883 a | MORPHINE (poppy crops [2]): 26.32 c kg/ha | PLANT HEIGHT (poppy crops [2]): 67 c cm | SEED (poppy crops [2]): 1015 b kg/ha | STRAW (poppy crops [2]): 1255 c kg/ha | STRAW MORPHINE (poppy crops [2]): 2.09 b % | YIELD (poppy crops [2]): 2.27 c t/ha | CAPSULE/SEED RATIO (poppy crops [3]): 6.140 a | CROP WEIGHT (poppy crops [3]): 2.46 c t/ha | MORPHINE (poppy crops [3]): 38.8 b kg/ha | SEED (poppy crops [3]): 269 c kg/ha | STRAW (poppy crops [3]): 2194 a kg/ha | STRAW MORPHINE (poppy crops [3]): 1.77 b % | PLANT HEIGHT (poppy crops [3]; measured at early-full flower): 77.4 cm·days | LODGING (poppy crops [3]; measured on the day of capsule harvest): 1.0 b % | CAPS/SEED RATIO (poppy crops [4]): 10.444 a | CROP WEIGHT (poppy crops [4]): 2.24 b t/ha | MORPHINE (poppy crops [4]): 47.11 b kg/ha | SEED (poppy crops [4]): 143 c kg/ha | STRAW (poppy crops [4]): 2099 a kg/ha | STRAW MORPHINE (poppy crops [4]): 2.24 c % | HEIGHT (poppy crops [4]; height at end of flowering): 83.4 bc cm | CAPS/SEED RATIO (poppy crops [5]): 2.543 a | CROP WEIGHT (poppy crops [5]): 2.87 b t/ha | MORPHINE (poppy crops [5]): 46.52 b kg/ha | SEED (poppy crops [5]): 643 c kg/ha | STRAW (poppy crops [5]): 2186 a kg/ha | STRAW MORPHINE (poppy crops [5]): 2.13 c % | PLANT HEIGHT (poppy crops [5]; 5 weeks after last application): 88.0 cm·days | LODGING (poppy crops [5]; at capsule harvest): 1.8 a % | CAPSULE/SEED RATIO (poppy crops [6]): 6.352 | CROP WEIGHT (poppy crops [6]): 1.33 t/ha | MORPHINE (poppy crops [6]): 21.65 kg/ha | SEED (poppy crops [6]): 131 kg/ha | STRAW (poppy crops [6]): 1203 kg/ha | STRAW MORPHINE % (poppy crops [6]): 1.80% | PLANT HEIGHT (poppy crops [6]; measured some 10 weeks after last application): 72 cm
